Drawing on ChEMBL document CHEMBL1201862, “PubChem BioAssay data set” (2004), this text covers AC50 and EC50 for 38 compounds.

Active and inactive are the calls of the source.

Targets include Cytochrome P450 3A4 (Homo sapiens, UniProt P08684); Cytochrome P450 2D6 (Homo sapiens, UniProt P10635); Cytochrome P450 2C9 (Homo sapiens, UniProt P11712).
For the next experiment, the target named is T1, Cytochrome P450 1A2 (Homo sapiens, UniProt P05177).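 Further: PubChem cytochrome P450 panel assay, CYP1A2 panel member.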
T1 sequence (P05177 whole entry): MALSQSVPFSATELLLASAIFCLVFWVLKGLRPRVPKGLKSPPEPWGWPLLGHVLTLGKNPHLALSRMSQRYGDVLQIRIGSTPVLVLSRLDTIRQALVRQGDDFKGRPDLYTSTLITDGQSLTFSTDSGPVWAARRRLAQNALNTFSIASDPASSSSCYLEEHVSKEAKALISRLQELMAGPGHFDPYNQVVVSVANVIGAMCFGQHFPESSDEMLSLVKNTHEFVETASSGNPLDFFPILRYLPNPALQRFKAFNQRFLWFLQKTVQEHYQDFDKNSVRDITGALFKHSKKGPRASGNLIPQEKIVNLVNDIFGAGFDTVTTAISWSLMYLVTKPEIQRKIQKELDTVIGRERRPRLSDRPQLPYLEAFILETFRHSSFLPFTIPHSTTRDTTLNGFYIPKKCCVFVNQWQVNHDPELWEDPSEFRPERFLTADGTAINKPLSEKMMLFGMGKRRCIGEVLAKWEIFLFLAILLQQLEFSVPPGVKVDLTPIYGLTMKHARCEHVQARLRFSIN

In experiment [1] the target is T2, Heat shock factor protein 1 (Mus musculus, UniProt P38532).
T2 sequence (P38532 whole entry): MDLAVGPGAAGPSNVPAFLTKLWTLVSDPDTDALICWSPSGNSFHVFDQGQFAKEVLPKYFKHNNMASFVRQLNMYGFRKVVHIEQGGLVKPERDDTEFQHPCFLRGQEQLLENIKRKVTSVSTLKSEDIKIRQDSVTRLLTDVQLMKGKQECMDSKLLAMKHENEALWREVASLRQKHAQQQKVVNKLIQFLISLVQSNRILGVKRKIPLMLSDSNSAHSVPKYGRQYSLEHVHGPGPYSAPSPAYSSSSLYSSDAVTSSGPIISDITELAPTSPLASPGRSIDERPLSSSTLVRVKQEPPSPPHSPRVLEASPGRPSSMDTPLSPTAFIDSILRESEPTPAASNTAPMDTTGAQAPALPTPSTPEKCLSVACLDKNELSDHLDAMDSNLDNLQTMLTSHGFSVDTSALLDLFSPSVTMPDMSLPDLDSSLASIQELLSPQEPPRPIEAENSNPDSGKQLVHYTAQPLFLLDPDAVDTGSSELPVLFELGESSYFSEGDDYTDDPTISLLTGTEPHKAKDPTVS
Description: decrease of HSF1-responsive luciferase luminescence – cell-based, NIH3T3, dose retest, confirmation (AID 2382).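 Further: NIH3T3 fibroblasts with HSF1-driven luciferase reporter stressed by proteasome inhibitor MG132; luminescence from HSF1-driven luciferase expression after 8 hours of MG132 stress.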 Type of experiment: functional.

Another experiment addresses T3, Streptokinase A (Streptococcus pyogenes serotype M1, UniProt P10520).
T3 sequence (P10520 whole entry): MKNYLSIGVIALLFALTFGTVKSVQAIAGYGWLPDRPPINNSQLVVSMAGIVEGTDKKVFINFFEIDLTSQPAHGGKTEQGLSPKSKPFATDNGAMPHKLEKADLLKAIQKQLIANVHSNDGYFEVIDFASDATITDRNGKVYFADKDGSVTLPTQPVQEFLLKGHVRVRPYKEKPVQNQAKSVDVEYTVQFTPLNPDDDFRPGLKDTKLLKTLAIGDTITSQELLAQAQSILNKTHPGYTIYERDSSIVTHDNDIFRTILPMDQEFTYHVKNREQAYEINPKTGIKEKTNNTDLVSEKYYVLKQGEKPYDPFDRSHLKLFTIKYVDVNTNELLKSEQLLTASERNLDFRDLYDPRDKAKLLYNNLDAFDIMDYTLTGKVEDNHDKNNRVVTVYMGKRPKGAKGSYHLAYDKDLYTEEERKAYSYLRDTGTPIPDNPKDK
The experiment in a line: viability-normalized secreted streptokinase activity reduction – plasminogen activation absorbance, OD405, dose response (AID 1914).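 Further: secreted streptokinase activity via plasminogen activation per viability signal from cell pellet.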 Type of experiment: functional, Streptococcus pyogenes M1 GAS.

The next experiment deals with Cytochrome P450 2C19 (Homo sapiens, UniProt P33261). Description: Cytochrome panel assay with activity outcomes. Panel member name: p450-cyp2c19 Compounds with AC50 equal or less than 10 uM are considered active. Type of experiment: functional. The following applies: read-out: AC50.
Sequence of Cytochrome P450 2C19 (P33261 whole entry): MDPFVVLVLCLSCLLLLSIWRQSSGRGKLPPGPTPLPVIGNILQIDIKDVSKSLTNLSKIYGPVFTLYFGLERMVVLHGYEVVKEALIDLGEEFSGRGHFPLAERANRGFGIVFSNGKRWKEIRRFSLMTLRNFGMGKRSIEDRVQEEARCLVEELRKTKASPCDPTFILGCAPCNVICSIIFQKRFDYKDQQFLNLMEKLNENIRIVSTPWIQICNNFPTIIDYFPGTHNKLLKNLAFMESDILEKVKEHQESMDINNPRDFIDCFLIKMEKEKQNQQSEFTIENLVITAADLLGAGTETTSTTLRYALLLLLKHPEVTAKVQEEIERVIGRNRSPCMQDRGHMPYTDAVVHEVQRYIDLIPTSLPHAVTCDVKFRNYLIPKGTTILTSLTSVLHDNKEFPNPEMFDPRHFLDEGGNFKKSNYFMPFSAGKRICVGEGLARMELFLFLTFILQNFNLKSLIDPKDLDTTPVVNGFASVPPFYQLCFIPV
The test system of experiment [2] is Streptococcus sp. 'group A'. The experiment in a line: Streptococcus pyogenes SK(-)GAS viability under kanamycin – luminescence, BacTiterGlo, confirmation, counter-screen for streptokinase expression inhibitor project, dose response (AID 1900). Type of experiment: functional, organism-based.
Another experiment has as its system Streptococcus. The experiment in a line: GAS UMAA2166 growth inhibition – luminescence, BacTiterGlo, counter-screen for streptokinase expression inhibitor project, dose response (AID 1915).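 Further: potency for reduction of bacterial viability or growth.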 Type of experiment: functional, organism-based. For orientation: A counterscreen serves to expose hits that act by an unwanted route or on another target.
Experiment [3] is described as follows: Luminescence Cell-Based Dose Response HTS to Identify Inhibitors of 5'UTR Stem-Loop Driven Prion Protein mRNA Translation in H4 Neuroglioblastoma Cells. [Related pubchem assays: 1827 (Project Summary), 1813 (Primary HTS)]. It is filed as functional.
Experiment [4] can be described thus: alpha-synuclein stem-loop luciferase translation blockers – H4 neuroglioma cells, luminescence, confirmation (AID 1988). Type of experiment: functional, cell-based.

Sequence of Cytochrome P450 2D6 (P10635 whole entry): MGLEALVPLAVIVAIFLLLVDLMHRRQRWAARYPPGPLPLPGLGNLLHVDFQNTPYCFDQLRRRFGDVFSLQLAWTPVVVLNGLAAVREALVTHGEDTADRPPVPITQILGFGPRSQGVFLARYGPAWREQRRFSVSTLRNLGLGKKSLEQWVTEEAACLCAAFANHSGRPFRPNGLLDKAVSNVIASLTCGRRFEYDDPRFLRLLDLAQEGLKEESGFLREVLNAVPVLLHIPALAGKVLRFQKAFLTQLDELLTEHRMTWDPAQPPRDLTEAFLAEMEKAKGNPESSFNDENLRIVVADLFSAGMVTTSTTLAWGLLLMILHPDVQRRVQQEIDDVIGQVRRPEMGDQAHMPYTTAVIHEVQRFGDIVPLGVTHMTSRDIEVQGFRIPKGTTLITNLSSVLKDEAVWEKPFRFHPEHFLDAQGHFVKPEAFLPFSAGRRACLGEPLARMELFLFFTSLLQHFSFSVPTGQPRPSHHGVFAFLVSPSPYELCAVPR
Sequence of Cytochrome P450 2C9 (P11712 whole entry): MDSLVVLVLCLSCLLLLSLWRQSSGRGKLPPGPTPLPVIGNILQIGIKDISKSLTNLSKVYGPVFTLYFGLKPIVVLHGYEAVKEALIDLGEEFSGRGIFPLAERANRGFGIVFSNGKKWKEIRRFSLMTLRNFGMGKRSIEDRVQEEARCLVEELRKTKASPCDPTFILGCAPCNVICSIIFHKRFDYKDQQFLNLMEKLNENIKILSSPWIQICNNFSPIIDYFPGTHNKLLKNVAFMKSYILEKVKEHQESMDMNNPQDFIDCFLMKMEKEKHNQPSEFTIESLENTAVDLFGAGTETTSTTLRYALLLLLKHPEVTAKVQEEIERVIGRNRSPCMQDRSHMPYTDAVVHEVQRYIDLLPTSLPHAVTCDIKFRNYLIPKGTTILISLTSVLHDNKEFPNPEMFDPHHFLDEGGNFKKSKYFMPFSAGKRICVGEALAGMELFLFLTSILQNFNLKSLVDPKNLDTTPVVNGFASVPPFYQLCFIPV
Sequence of Cytochrome P450 3A4 (P08684 whole entry): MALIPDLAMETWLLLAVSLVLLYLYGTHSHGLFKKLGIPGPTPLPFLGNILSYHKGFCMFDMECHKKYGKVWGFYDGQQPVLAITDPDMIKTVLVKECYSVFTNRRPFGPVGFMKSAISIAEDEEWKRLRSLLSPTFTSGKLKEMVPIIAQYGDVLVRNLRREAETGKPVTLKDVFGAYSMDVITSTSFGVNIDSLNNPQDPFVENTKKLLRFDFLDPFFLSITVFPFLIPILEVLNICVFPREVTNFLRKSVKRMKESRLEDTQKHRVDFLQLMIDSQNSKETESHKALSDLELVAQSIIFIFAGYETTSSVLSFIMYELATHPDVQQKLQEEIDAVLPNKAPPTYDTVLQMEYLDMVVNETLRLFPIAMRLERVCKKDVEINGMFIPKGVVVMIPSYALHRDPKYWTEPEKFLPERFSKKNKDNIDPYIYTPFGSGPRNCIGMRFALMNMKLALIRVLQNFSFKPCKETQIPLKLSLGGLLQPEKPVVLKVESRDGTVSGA

For the compound `Clc1ccc(Sc2cc(N3CCOCC3)nc(-c3ccccc3)n2)cc1`, the results for the AC50 on Cytochrome P450 1A2 and at Cytochrome P450 3A4 were 1.41 µM (inconclusive) and 15.8 µM (inconclusive), respectively. As to `Cc1ccc2nc(N3CCN(Cc4nnnn4Cc4ccccc4)CC3)c(C#N)cc2c1`, the EC50 in experiment [1] is reported as > 195 µM (not active). Same read-out and setting: next, `Cc1ccc(C(=O)NCCn2cc(SCC(=O)N3CCOCC3)c3ccccc32)cc1`: > 195 µM (not active). On to `COc1ccc(C(=O)N2CCC3(CCCN(Cc4ccccc4OC)C3)CC2)cc1`, for which the figures for the AC50 on Cytochrome P450 2D6 and on Cytochrome P450 3A4 were 12.6 µM (inconclusive) and 15.8 µM (inconclusive), respectively.

Regarding `Cc1cc(C)c2c(O)nc(SCC(=O)N(C)C)nc2n1`, the AC50 on Cytochrome P450 1A2 was 15.8 µM (inconclusive). Consider `COc1ccc(CSCCNC(=S)Nc2ccccc2)cc1Cl`, for which the EC50 at Streptokinase A was > 150 µM (not active).

Turning to `COCCN(CCOC)S(=O)(=O)c1ccc(C(=O)Nc2nc(C)c(C(C)=O)s2)cc1`, the AC50 is 20 µM (inconclusive) at Cytochrome P450 2C9, 0.1 µM (inconclusive) on Cytochrome P450 1A2 and 3.16 µM (inconclusive) on Cytochrome P450 3A4. In the case of `Fc1cccc(CSc2ncnc3c2ncn3[C@H]2CCCS2)c1`, the AC50 on Cytochrome P450 2C19 is 3.98 µM (inconclusive); on Cytochrome P450 1A2 it was 0.501 µM (inconclusive). Turning to `Cc1ccc(S(=O)(=O)c2cc(C#N)c(O)nc2N)cc1`, the AC50 on Cytochrome P450 2D6 was 39.8 µM (inconclusive); at Cytochrome P450 3A4, 25.1 µM (inconclusive). For `CC(CO)(CO)Nc1ncnc2ccccc12`, the half-maximal activity concentration (AC50) at Cytochrome P450 1A2 was 6.31 µM (inconclusive).

With `CCCC(=O)Nc1ccc2c(c1)nc(CCNC(=O)c1ccccc1)n2C`, the EC50 (at Streptokinase A; in experiment [2]; in the experiment on Streptococcus) was > 150 µM (not active) throughout. As for `CC1=NN(c2ccc([N+](=O)[O-])cc2)C(=O)/C1=C\N(C)C`, the values for the EC50 (on Streptokinase A; in [2]; in the experiment on Streptococcus) were > 150 µM (not active), 5.85 µM (active) and 10.9 µM (active), respectively.

With `COc1ccc(C(=O)ON=C(N)c2ccccc2)c(OC)c1`, the EC50 in experiment [3] is > 120 µM (not active); in experiment [4] it was 5.93 µM (active). For the compound `Cn1nnnc1SCc1ccc(C(=O)Nc2ccc(Br)cc2)cc1`, the results for the AC50 at Cytochrome P450 2C19, at Cytochrome P450 2C9 and on Cytochrome P450 1A2 were 6.31 µM (inconclusive), 2 µM (inconclusive) and 6.31 µM (inconclusive), respectively. For `CC1CCCN(S(=O)(=O)c2ccc(C(=O)Nc3nnc(C4CC4)o3)cc2)C1` (stereo unspecified), the EC50 at Streptokinase A was > 150 µM (not active); in [2], 4.14 µM (active); in the experiment on Streptococcus, 13.8 µM (active).

For the compound `CC(C)CCN(C(=O)CNC(=O)c1cccs1)C(C(=O)NC1CCCCC1)c1cccnc1` (stereo unspecified), in experiment [1], the EC50 is > 195 µM (not active). For `CN1C(=O)/C(=C/c2ccccc2F)Sc2ccc(C(=O)NCC3CCCO3)cc21` (stereo unspecified), the concentration giving a half-maximal response (EC50) on Streptokinase A was > 150 µM (not active); in experiment [2], 1.09 µM (active); in the experiment with Streptococcus, 15.6 µM (active).

With `COc1ccc(-c2nc3cnc(N4CCOCC4)nc3n(CCc3ccccc3)c2=O)cc1`, the AC50 on Cytochrome P450 1A2 is 10 µM (inconclusive). As for `CCc1cc(C(=O)NCC(C)(C)N2CCOCC2)sc1C`, the EC50 in [1] was > 195 µM (not active). The same measure, in the same setting: the same measure for `CNC(=O)c1[nH]cnc1C(=O)Nc1ccccc1C`: > 195 µM (not active). Turning to `C=CCC(NCc1ccco1)c1ccc(OC)cc1` (stereo unspecified), the AC50 was 28.2 µM (inconclusive) at Cytochrome P450 1A2 and 22.4 µM (inconclusive) on Cytochrome P450 3A4.

As to `CCN(CC)C(=O)c1cc(-c2ccc(Br)cc2)on1`, the EC50 (on Streptokinase A; in experiment [2]; in the experiment with Streptococcus) was > 150 µM (not active) in each case. As for `COC(C(=O)Nc1ccnn1C1CCN(Cc2nccs2)CC1)c1ccccc1` (stereo unspecified), the EC50 (at Streptokinase A; in [2]; in the experiment on Streptococcus) was > 150 µM (not active) in each case. On to `O=C(Nc1nncs1)c1ccc(F)c(S(=O)(=O)N2CCCCC2)c1`, for which, in experiment [1], the EC50 was 39.5 µM (active). The same measure, in the same setting: next, `O=C(Nc1cccc(Cl)c1)c1ccc(S(=O)(=O)NCC2CCCO2)cc1` (stereo unspecified): > 195 µM (not active). As for `COCCNc1nc(-c2ccccc2OC)nc2ccccc12`, the AC50 was 25.1 µM (inconclusive) at Cytochrome P450 2D6 and 20 µM (inconclusive) at Cytochrome P450 3A4. Regarding `COc1ccc2nc(N3C(=O)CC(Cc4ccc(Cl)cc4)C3=O)sc2c1` (stereo unspecified), the AC50 on Cytochrome P450 1A2 was 2.24 µM (inconclusive). `COc1ccc(S(=O)(=O)N2CCCC2)cc1C(C)C`: in [1], the EC50 is reported as > 195 µM (not active). Consider `CC1CCC(C(C)C)C(OCC(O)CN2CCN(Cc3ccccc3)CC2)C1` (stereo unspecified), for which the AC50 at Cytochrome P450 2C9 was 1.41 µM (inconclusive); at Cytochrome P450 1A2, 12.6 µM (inconclusive). Turning to `c1ccc2c(c1)ncn2-c1ncnc2sc3c(c12)CCCC3`, the figures for the AC50 at Cytochrome P450 2D6, at Cytochrome P450 2C9 and on Cytochrome P450 3A4 were 0.00501 µM (inconclusive), 20 µM (inconclusive) and 14.1 µM (inconclusive), respectively.

Regarding `Cc1noc(C)c1C(=O)Nc1nccs1`, the EC50 (at Streptokinase A; in [2]; with Streptococcus) was > 150 µM (not active) each time.

`O=C(O)C1CCC(=O)N(C2CCCCC2)C1c1ccccc1Cl` (stereo unspecified): the EC50 in [1] is listed as > 195 µM (not active). Same read-out and setting: next, `CCOC(=O)c1cc2occc2n1CC(=O)N1CCCc2ccccc21`: > 195 µM (not active). Still for that read-out and setting: the same measure for `Cc1cccc(N2CCN(Cc3nc(-c4ccccc4Cl)oc3C)CC2)n1`: > 195 µM (not active). For the compound `Sc1nnc(C2CCCCC2)n1/N=C/c1c(Cl)cccc1Cl`, the EC50 was > 150 µM (not active) on Streptokinase A, 10.1 µM (active) in [2] and 71.9 µM (active) in the experiment on Streptococcus. With `CC1Cc2ccccc2N1C(=O)CO/N=C/c1ccc(OC(F)F)cc1` (stereo unspecified), the EC50 in experiment [1] is given as > 195 µM (not active). Take `COc1ccc(/C(C)=N/NC(=O)c2ccc(N(C)C)cc2)cc1`: the AC50 on Cytochrome P450 1A2 is 10 µM (inconclusive). For the compound `Cc1ccc(/C=N/n2cnnc2)s1`, the AC50 is 11.2 µM (inconclusive) on Cytochrome P450 2C19, 14.1 µM (inconclusive) on Cytochrome P450 2C9, 22.4 µM (inconclusive) on Cytochrome P450 1A2 and 15.8 µM (inconclusive) on Cytochrome P450 3A4.

What is called AC50 is the midpoint of the concentration-response curve, whichever way the signal moves. What is called EC50 is the concentration needed to bring the measured effect to its halfway point.
